The values that follow are results of earlier work, collected in US6465462B1, “Substituted triazolo pyridazine derivatives as inverse agonists of the GABAAα5 receptor subtype” (Merck Sharp & Dohme Ltd., priority 1996, dated 2002).

For data set [1] the following is noted: reported by McNamara and Skelton, Psychobiology 21:101-108.
The conditions of data set [2]: in vivo.

On to `COC(=O)c1cc2c(cn1)[nH]c1ccccc12` [β-CCM], for which the “spatial learning in the Morris watermaze” value in data set [1] was “enhanced spatial learning”. The proconvulsant effect result in data set [2] is recorded as “proconvulsant”.
